Measured values reported in BigSolDB 2.1.

COc1cc(/C=C/C(=O)O)cc(OC)c1O
solubility (mole fraction)
Settings	in DMSO	in ethanol	in ethyl acetate	in ethylene glycol	in isopropanol	in n-butanol	in propylene glycol	in sec-butanol	in transcutol	in water
298.15 K	0.148	0.012	0.00532	0.0059	0.00213	0.00355	0.00452	0.00409	0.0298	6.22e-05
303.15 K	0.15	0.013	0.00627	0.00663	0.00222	0.00429	0.0053	0.00486	0.0324	8.11e-05
308.15 K	0.153	0.0141	0.00764	0.00748	0.00234	0.00529	0.00607	0.00559	0.0353	0.000113
313.15 K	0.156	0.0152	0.00935	0.00843	0.00245	0.00631	0.00708	0.00663	0.0383	0.000146
318.15 K	0.159	0.0164	0.0109	0.00934	0.00257	0.00729	0.00811	0.00761	0.0412	0.000188

Settings	solubility (mole fraction)
in PEG-400, 298.15 K	0.0558
in PEG-400, 303.15 K	0.0616
in PEG-400, 308.15 K	0.0681
in PEG-400, 313.15 K	0.0748
in PEG-400, 318.15 K	0.0834
